Measured values: PMC7311426, “An amphipathic peptide with antibiotic activity against multidrug-resistant Gram-negative bacteria” (Nature Communications, 2020)
Residues, ends and D or L forms follow the SMILES beside them.

Columns and labels:
[1] = Intravenous pharmacokinetics; conditions: for Nonlin fit of XY (Prism), mouse i.v. bolus / level at 1.23 h / level at 2 h / level at 3 h / level at 4 h / level at 8 h / level at 0.08 h / level at 0.5 h / level at 1 h / level at 24 h: Cross species PK; for Nonlin fit of XY (Prism), mouse i.v. bolus: fitted curve; for level at 1.23 h / level at 2 h / level at 3 h / level at 4 h / level at 8 h / level at 0.08 h / level at 0.5 h / level at 1 h / level at 24 h: concentration (Fig 6 source data)
Procedure: The studies were performed at Fidelta Ltd, Croatia (mice), under review by the institutional ethics committee (CARE-Zg), and Covance Laboratories UK and Muenster Germany (cynomolgus monkey and minipig) in accordance with the requirements of the Animals (Scientific Procedures) Act 1989 and a maintained local ethical review. All studies were contracted by Adenium Biotech ApS. Mice were housed in polysulfone cages with an acclimatization period of 7 days prior to experiments with air temperature maintained at 22 °C with 55% humidity and light–dark cycles of 12 h light. Cynomolgus monkeys of age range 4–7 years were selected, tested for health, acclimatized for 2 weeks, and housed in single-animal climate controlled stainless-steel cages with a minimum of 8 air changes per hour with air temperature at 19–25 °C and relative humidity 40–70%, and light–dark cycles of 12 h light. Minipigs of age range 4–6 months were selected, tested for health, acclimatized for 2 weeks, and housed in single-animal pens with 15–20 air changes per hour with air temperature at 22–26 °C with light–dark cycles of 12 h light.
Mouse i.v. injection: A formulation of AA139 in Ringer’s acetate pH 6.0 (1 mg mL^−1) was administered to male CD1 mice (Charles River, Italy) at 10 mg kg^−1 as a 400 μL slow injection into the lateral tail vein. Blood samples were collected from the jugular vein at eight timepoints (n = 3 mice): 0.08, 0.25, 0.5, 1, 2, 4, 8, and 24 h. AA139 was quantified in plasma using solid phase extraction (SPE) followed by liquid chromatography with tandem mass spectrometric detection (LC–MS/MS). Pharmacokinetic analysis was performed using Phoenix WinNonlin 6.2. (Pharsight Corporation) software using individual animal data, non-compartmental sparse analysis, and the actual dose as determined from formulation analysis by UPLC.
Mouse, monkey, and minipig i.v. 2-h infusion: AA139 formulated in Ringer’s acetate was administered intravenously to CD1 mice, cynomolgus monkeys (Macaca fascicularis) and Göttingen A/S minipigs (Ellegaard Göttingen, Denmark) by continuous infusion over 2 h (minipig under anesthesia). Individual dose volumes were based on individual body weight. Blood samples were collected at 0.5, 1, 2, 3, 4, 8, 10, and 12 h after the start of the infusion (n = 6 mice, male and female combined; n = 2 monkeys, one male and one female; n = 2 minipigs, one male and one female). Bioanalytical analysis was performed by SPE followed by LC–MS/MS. The method was validated for an AA139 concentration range of 43.4–21,700 ng mL^−1. Pharmacokinetic parameters were calculated by standard non-compartmental analysis (NCA) using Phoenix WinNonlin version 6.2. The studies were conducted in compliance with Good Laboratory Practice (GLP) regulations.

[2] = Dose range finding & MTD iv toxicity
[3] = both, CD1, mouse, in vivo, iv, 10 mg kg-1
[4] = both, CD1, mouse, in vivo, iv, mouse 2h i.v. infusion, replicate 1
[5] = both, CD1, mouse, in vivo, iv, mouse 2h i.v. infusion, replicate 2
[6] = both, CD1, mouse, in vivo, iv, mouse 2h i.v. infusion, replicate 3
[7] = male, CD1, mouse, in vivo, iv, 10 mg kg-1
[8] = male, CD1, mouse, in vivo, iv, 10 mg/kg, mouse i.v. bolus, replicate 1
[9] = male, CD1, mouse, in vivo, iv, 10 mg/kg, mouse i.v. bolus, replicate 2
[10] = male, CD1, mouse, in vivo, iv, 10 mg/kg, mouse i.v. bolus, replicate 3
[11] = cynomolgus monkey, in vivo, iv, 20 mg/kg

Question: What does the source list for `CC(C)[C@@H]1NC(=O)[C@H](Cc2ccc(O)cc2)NC(=O)[C@H](Cc2c[nH]c3ccccc23)NC(=O)[C@@H](NC(=O)[C@H](Cc2ccccc2)NC(=O)CN)CSSC[C@@H](C(=O)N[C@@H](CC(N)=O)C(=O)O)NC(=O)[C@H](CCCNC(=N)N)NC(=O)[C@H](CCCNC(=N)N)NC(=O)[C@H](Cc2ccc(O)cc2)NC(=O)[C@@H]2CSSC[C@H](NC1=O)C(=O)N[C@@H](C)C(=O)N[C@@H](CCCNC(=N)N)C(=O)N[C@@H](CCCNC(=N)N)C(=O)N[C@@H](CC(N)=O)C(=O)NCC(=O)N[C@@H](C)C(=O)N[C@@H](CCCNC(=N)N)C(=O)N[C@@H](C(C)C)C(=O)N2` [AA139] (HELM PEPTIDE1{G.F.C.W.Y.V.C.A.R.R.N.G.A.R.V.C.Y.R.R.C.N}$PEPTIDE1,PEPTIDE1,3:R3-20:R3|PEPTIDE1,PEPTIDE1,7:R3-16:R3$$$V2.0)?
Answer: Nonlin fit of XY (Prism), mouse i.v. bolus ([1]; Time 19.1952 h): 546.556; Nonlin fit of XY (Prism), mouse i.v. bolus ([1]; Time 20.1802 h): 523.855; Nonlin fit of XY (Prism), mouse i.v. bolus ([1]; Time 23.952 h): 452.817; AUC(0-inf) [1, 3]: 14000 ng·h/mL; half-life [1, 3]: 174 min; level at 1.23 h [1, 4]: 4540 ng/mL; level at 1.23 h [1, 5]: 4960 ng/mL; level at 1.23 h [1, 6]: 4090 ng/mL; level at 2 h [1, 4]: 8160 ng/mL; level at 2 h [1, 5]: 8010 ng/mL; level at 2 h [1, 6]: 3870 ng/mL; level at 3 h [1, 4]: 3530 ng/mL; level at 3 h [1, 5]: 3750 ng/mL; level at 3 h [1, 6]: 1420 ng/mL; level at 4 h [1, 4]: 1350 ng/mL; level at 4 h [1, 5]: 1140 ng/mL; level at 4 h [1, 6]: 1490 ng/mL; level at 8 h [1, 4]: 110 ng/mL; level at 8 h [1, 5]: 216 ng/mL; level at 8 h [1, 6]: 178 ng/mL; Clearance relative to rate of liver blood flow ([1]; i.v., mice, cynomolgus monkeys and minipigs): ~ 20%; half-life ([1]; i.v., mice, cynomolgus monkeys and minipigs, bi-exponential elimination): 120 to 240 min; AUC(0-inf) [1, 7]: 24900 ng·h/mL; Vd [1, 7]: 0.91 L/kg; half-life [1, 7]: 192 min; Cmax ([1]; male, CD1, mouse, in vivo, iv, 10 mg/kg): 16200 ng/mL; level at 0.08 h [1, 8]: 14900 ng/mL; level at 0.08 h [1, 9]: 10800 ng/mL; level at 0.08 h [1, 10]: 13200 ng/mL; level at 0.5 h [1, 8]: 8770 ng/mL; level at 0.5 h [1, 9]: 8380 ng/mL; level at 0.5 h [1, 10]: 6290 ng/mL; level at 1 h [1, 8]: 7140 ng/mL; level at 1 h [1, 9]: 5150 ng/mL; level at 1 h [1, 10]: 3780 ng/mL; level at 2 h [1, 8]: 5140 ng/mL; level at 2 h [1, 9]: 2960 ng/mL; level at 2 h [1, 10]: 3850 ng/mL; level at 4 h [1, 8]: 1600 ng/mL; level at 4 h [1, 9]: 1470 ng/mL; level at 4 h [1, 10]: 1500 ng/mL; level at 8 h [1, 8]: 402 ng/mL; level at 8 h [1, 9]: 388 ng/mL; level at 8 h [1, 10]: 472 ng/mL; level at 24 h [1, 8]: 48 ng/mL; level at 24 h [1, 9]: 32 ng/mL; level at 24 h [1, 10]: 31 ng/mL; Cross species PK, concentration (Fig 6 source data) ([1]; mouse 2h i.v. infusion, time 10 h, replicate 1): 88; Cross species PK, concentration (Fig 6 source data) ([1]; mouse 2h i.v. infusion, time 10 h, replicate 2): 124; Cross species PK, concentration (Fig 6 source data) ([1]; mouse 2h i.v. infusion, time 10 h, replicate 3): 134; Cross species PK, concentration (Fig 6 source data) ([1]; mouse 2h i.v. infusion, time 12 h, replicate 1): 72.4; Cross species PK, concentration (Fig 6 source data) ([1]; mouse 2h i.v. infusion, time 12 h, replicate 2): 93.8; Cross species PK, concentration (Fig 6 source data) ([1]; mouse 2h i.v. infusion, time 12 h, replicate 3): 62.7; AUC(0-inf) [2, 11]: 80300 ng·h/mL; Cmax [2, 11]: 15800 ng/mL; NOAEL in monkeys ([2]; i.v. over 2 h QD or BID): 15 mg kg^−1 per day
